The text below walks through data of patent US8846948B2, “Compounds” (Boehringer Ingelheim International GmbH, priority 2011, dated 2014).

The target in the assay is T1, human recombinant mGluR5 (Homo sapiens, UniProt P41594).
T1 construct: expressed in transfected cells; host or cells: HEK 293 cell line, cultured with tetracycline, hygromycin and geneticin
T1 sequence (P41594 21-1212): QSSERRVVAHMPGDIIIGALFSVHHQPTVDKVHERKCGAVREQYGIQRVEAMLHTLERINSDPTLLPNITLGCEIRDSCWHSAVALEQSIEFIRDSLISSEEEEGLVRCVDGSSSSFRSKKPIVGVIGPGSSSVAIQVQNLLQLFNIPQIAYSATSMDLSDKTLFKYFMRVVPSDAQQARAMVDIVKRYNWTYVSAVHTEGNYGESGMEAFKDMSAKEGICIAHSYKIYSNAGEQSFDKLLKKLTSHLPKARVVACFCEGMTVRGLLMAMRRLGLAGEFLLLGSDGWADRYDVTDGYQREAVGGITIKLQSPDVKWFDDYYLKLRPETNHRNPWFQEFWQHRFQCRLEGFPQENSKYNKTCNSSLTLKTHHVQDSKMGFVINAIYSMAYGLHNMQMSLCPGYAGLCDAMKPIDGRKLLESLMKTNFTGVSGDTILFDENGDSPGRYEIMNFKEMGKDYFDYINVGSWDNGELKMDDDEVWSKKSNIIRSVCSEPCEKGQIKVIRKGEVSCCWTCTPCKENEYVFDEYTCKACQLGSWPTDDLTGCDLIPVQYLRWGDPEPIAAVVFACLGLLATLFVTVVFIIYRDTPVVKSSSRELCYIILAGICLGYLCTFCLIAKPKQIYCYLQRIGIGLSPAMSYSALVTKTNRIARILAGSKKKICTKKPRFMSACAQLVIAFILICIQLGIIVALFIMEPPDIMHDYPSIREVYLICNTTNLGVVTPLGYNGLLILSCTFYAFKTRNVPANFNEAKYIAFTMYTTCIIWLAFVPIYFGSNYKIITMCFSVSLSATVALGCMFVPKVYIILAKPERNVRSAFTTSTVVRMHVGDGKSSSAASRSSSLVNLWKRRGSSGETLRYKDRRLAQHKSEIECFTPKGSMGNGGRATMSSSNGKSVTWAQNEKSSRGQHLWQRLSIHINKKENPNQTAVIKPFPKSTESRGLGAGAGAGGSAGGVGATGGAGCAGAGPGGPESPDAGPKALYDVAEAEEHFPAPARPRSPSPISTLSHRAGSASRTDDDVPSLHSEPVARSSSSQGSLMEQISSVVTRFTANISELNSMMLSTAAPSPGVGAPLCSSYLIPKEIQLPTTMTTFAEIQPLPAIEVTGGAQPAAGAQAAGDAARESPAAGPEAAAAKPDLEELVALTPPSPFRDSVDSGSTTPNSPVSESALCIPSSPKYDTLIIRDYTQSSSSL
Put plainly: Positive modulation of mGluR5, calcium based FLIPR assay. Particulars: EC50 of the modulation; HEK 293 cell line expressing human recombinant mGluR5; peak height of Ca release fluorescence signal after glutamate at approximately 5% basal stimulation. How it is done: The positive modulation of mGluR5 is measured in a HEK 293 cell line expressing human recombinant mGluR5 and is detected with calcium based FLIPR assay. The cells are cultured with DMEM supplemented with 10% FCS, 2 μg/mL tetracycline, 100 μg/mL hygromycin and 500 μg/mL gneticin. The cell culture media is exchanged for tetracycline-free cell culture media 3-7 days before the assay. One day before the assay the cell culture medium is exchanged to DMEM without glutamine and phenol red and supplemented with 10% FCS, 100 μg/mL hygromycin and 500 μg/mL geneticin. On the assay day, the medium of the subconfluent cultures is removed and the cells are detached by addition of 2.5 ml EDTA (0.02%) per 175 cm2 culture flask for 1 minute. The cells are resuspend in Ringer solution (140 mM NaCl, 5 mM KCl, 2.5 mM CaCl2, 1.5 mM MgCl2, 5 mM Glucose, 10 mM Hepes; adjusted to pH 7.4 with NaOH), pooled and Ringer solution added to adjust the volume to 50 mL. The cell suspension is centrifuged for […] at 1500 U/min (425 g). The supernatant is removed and the cells washed a second time with 50 ml fresh Ringer solution and centrifuged again as before. The supernatant is again removed and the pellet resuspended in Ringer solution to 1,000,000 cells/ml (1×10^6 cells/mL). The cells are plated onto BD BioCoat Poly-D-Lysine 384 well plates (20.000 cells/well; 20 μl/well). The lid covered plates are then incubated until use at 37° C./10% CO2. For dye loading, 20 μl of Calcium-4 assay kit solution (prepared according to the manufacturer's description in Ringer solution) are added to the cells and the plates are incubated for […] 37° C. and then […] at room temperature.
Controls, Compound dilution and assay execution:
Each assay plate contained wells with “high” and “low” controls:
Low controls 1% DMSO/ringer solution+basal glutamate activation (defined as 100% CTL).
High controls 10 μM CDPPB+basal glutamate activation (defined as 200% CTL).
Test compounds are dissolved and diluted in DMSO to 100-fold the desired concentrations. In a second step, the compounds are diluted in Ringer solution such that the compounds are 4-fold more concentrated than the desired final assay concentration. The final DMSO concentration was 1%.
20 μl of each compound solution are then transferred to the assay plate and the Ca2+ kinetic is measured to determine any intrinsic compound activity. After 5 mM incubation in the FLIPR device, the second stimulation with 20 μl of glutamate in Ringer solution (glutamate concentration adjusted to approximately 5% basal stimulation of the maximal possible glutamate effect) is added and the kinetic Ca2+ response of the wells was measured for the modulation effect.
The peak height of the Ca release related fluorescence signal (9-66) is used for the EC50. The EC50 of the modulation is calculated over a nonlinear regression with GraphPad Prism (Table 1).
For the compound `Cc1cccc(-c2cn(CC(=O)N3CCN(c4ccccn4)CC3)c(-c3ccccc3)n2)c1` [Example 7.01.35.], the concentration giving a half-maximal response (EC50) came out at 73 nM.

With `Cc1cc(-c2cn(CC(=O)N3CCN(c4ncccn4)CC3)c(-c3ccc(F)cc3)n2)ccc1F` [Example 7.01.19.], the EC50 stood at 31 nM.

Turning to `Cc1ccc(-c2cn(CC(=O)N3CCN(c4ncccn4)CC3)c(-c3ccccc3)n2)cc1Cl` [Example 7.03.09.], the EC50 stood at 48 nM.

Take `COc1cc(N2CCN(C(=O)Cn3cc(-c4cccc(C)c4)nc3-c3ccccc3)CC2)ncn1` [Example 7.01.36.]: the 50% effective concentration (EC50) was determined as 196 nM.

On to `Cc1cc(-c2cn(CC(=O)N3CCN(c4ncnc5[nH]cnc45)CC3)c(-c3ccc(F)cc3)n2)ccc1F` [Example 7.01.20.], for which the EC50 worked out at 73 nM.

On to `COc1cc(N2CCN(C(=O)Cn3cc(-c4ccc(F)c(C)c4)nc3-c3ccc(F)cc3)CC2)ncn1` [Example 7.01.18.], for which the EC50 stood at 99 nM.

Consider `Cc1cc(-c2cn(CC(=O)N3CCN(c4ncccn4)CC3)c(-c3ccccc3)n2)cc(C)c1F` [Example 7.03.07.], for which the EC50 came out at 38 nM.

Turning to `Cc1cc(-c2cn(CC(=O)N3CCN(c4ccccn4)CC3)c(C3CCCCC3)n2)ccc1F` [Example 7.01.11.], the EC50 was 710 nM.

Take `O=C(Cn1cc(-c2ccc(F)cc2)nc1-c1ccccc1)N1CCN(c2ncnc3[nH]cnc23)CC1` [Example 7.01.15.]: the EC50 was 858 nM.

For `Cc1cc(-c2cn(CC(=O)N3CCN(c4ncccn4)CC3)c(-c3ccccc3)n2)ccc1Cl` [Example 7.03.03.], the EC50 stood at 54 nM.

`Cc1cc(-c2cn(CC(=O)N3CCN(c4ncccn4)CC3)c(C3CCCCC3)n2)ccc1F` [Example 7.01.12.]: the EC50 came out at 458 nM.

`COc1ccnc(N2CCN(C(=O)Cn3cc(-c4cccc(C)c4)nc3-c3ccccc3)CC2)c1` [Example 7.01.33.]: the concentration giving a half-maximal response (EC50) came to 148 nM.

`Cc1cccc(-c2cn(CC(=O)N3CCN(c4cccnn4)CC3)c(-c3ccccc3)n2)c1` [Example 7.01.34.]: the EC50 amounted to 858 nM.

Consider `COc1cnc(N2CCN(C(=O)Cn3cc(-c4ccc(F)c(C)c4)nc3-c3ccccc3)CC2)nc1` [Example 7.01.07.], for which the EC50 came to 53 nM.

Take `O=C(Cn1cc(-c2ccccc2)nc1-c1ccccc1)N1CCN(c2ncccn2)CC1` [Example 7.01.01., 2-(2,4-Diphenyl-imidazol-1-yl)-1-(4-pyrimidin-2-yl-piperazin-1-yl)-ethanone]: the EC50 amounted to 1290 nM.

With `Cc1ccc(-c2nc(-c3ccccc3)cn2CC(=O)N2CCN(c3ccccn3)CC2)cc1` [Example 7.02.02.], the EC50 amounted to 1640 nM.

As to `O=C(Cn1cc(-c2ccc3c(c2)CCCO3)nc1-c1ccccc1)N1CCN(c2ncccn2)CC1` [Example 7.03.15.], the EC50 was 61 nM.

For `COc1cnc(N2CCN(C(=O)Cn3cc(-c4ccc(F)c(C)c4)nc3-c3ccc(F)cc3)CC2)nc1` [Example 7.01.25.], the EC50 is 69 nM.

With `CCOc1ccc(-c2cn(CC(=O)N3CCN(c4ncccn4)CC3)c(-c3ccccc3)n2)cc1` [Example 7.03.06.], the concentration for a half-maximal effect (EC50) was 680 nM.

For the compound `Cc1ccc(-c2cn(CC(=O)N3CCN(c4ncccn4)CC3)c(-c3ccccc3)n2)cc1` [Example 7.03.02.], the EC50 came to 67 nM.

On to `O=C(Cn1cc(-c2cccc(Cl)c2)nc1-c1ccccc1)N1CCN(c2ncccn2)CC1` [Example 7.03.13.], for which the EC50 turned out to be 158 nM.

On to `CN1CCOc2cc(-c3cn(CC(=O)N4CCN(c5ncccn5)CC4)c(-c4ccccc4)n3)ccc21` [Example 7.03.11.], for which the EC50 is 914 nM.

On to `O=C(Cn1cc(-c2ccc(F)cc2)nc1-c1ccc(F)cc1)N1CCN(c2cccnn2)CC1` [Example 7.01.29.], for which the EC50 was determined as 889 nM.

`O=C(Cn1cc(-c2cccc(F)c2)nc1-c1ccccc1)N1CCN(c2ncccn2)CC1` [Example 7.03.04.]: the EC50 came out at 395 nM.

Regarding `Cc1cc(-c2cn(CC(=O)N3CCN(c4ncncn4)CC3)c(-c3ccc(F)cc3)n2)ccc1F` [Example 7.01.24.], the EC50 amounted to 147 nM.

Take `COc1ccnc(N2CCN(C(=O)Cn3cc(-c4ccc(F)cc4)nc3-c3ccccc3)CC2)c1` [Example 7.01.14.]: the EC50 was found to be 306 nM.

Consider `COc1cc(-c2cn(CC(=O)N3CCN(c4ncccn4)CC3)c(-c3ccccc3)n2)ccc1C` [Example 7.03.12.], for which the EC50 stood at 29 nM.

For `O=C(Cn1cc(-c2ccc(F)cc2)nc1-c1ccccc1)N1CCN(c2ncccn2)CC1` [Example 7.03.01., 2-[4-(4-Fluoro-phenyl)-2-phenyl-imidazol-1-yl]-1-(4-pyrimidin-2-yl-piperazin-1-yl)-ethanone], the EC50 amounted to 272 nM.

For the compound `Cc1cc(-c2cn(CC(=O)N3CCN(c4cccnn4)CC3)c(-c3ccc(F)cc3)n2)ccc1F` [Example 7.01.22.], the EC50 is 144 nM.

Regarding `Cc1cc(-c2cn(CC(=O)N3CCN(c4ncnc5[nH]cnc45)CC3)c(C3CCCCC3)n2)ccc1F` [Example 7.01.13.], the EC50 is 857 nM.

For the compound `COc1cc(N2CCN(C(=O)Cn3cc(-c4ccc(F)c(C)c4)nc3C3CCCCC3)CC2)ncn1` [Example 7.01.09.], the half-maximal effective concentration (EC50) stood at 1320 nM.

As to `COc1ccc(-c2cn(CC(=O)N3CCN(c4ccccn4)CC3)c(-c3ccccc3)n2)cc1` [Example 7.02.01., 2-[4-(4-Methoxy-phenyl)-2-phenyl-imidazol-1-yl]-1-(4-pyridin-2-yl-piperazin-1-yl)-ethanone], the EC50 amounted to 464 nM.

For the compound `O=C(Cn1cc(-c2ccc(F)cc2)nc1-c1ccccc1)N1CCN(c2ccccn2)CC1` [Example 7.01.17.], the EC50 came to 542 nM.

`O=C(Cn1cc(-c2ccc(F)c(F)c2)nc1-c1ccccc1)N1CCN(c2ncccn2)CC1` [Example 7.03.10.]: the EC50 amounted to 159 nM.

Turning to `Cc1cc(-c2cn(CC(=O)N3CCN(c4ncc(F)cn4)CC3)c(-c3ccc(F)cc3)n2)ccc1F` [Example 7.01.26.], the EC50 is 83 nM.

For the compound `COc1ccnc(N2CCN(C(=O)Cn3cc(-c4ccc(F)c(C)c4)nc3C3CCCCC3)CC2)c1` [Example 7.01.10.], the EC50 is 737 nM.

As to `O=C(Cn1cc(-c2cccc(C(F)(F)F)c2)nc1-c1ccccc1)N1CCN(c2ncccn2)CC1` [Example 7.03.14.], the EC50 was 183 nM.

In the case of `O=C(Cn1cc(-c2ccc(F)cc2)nc1-c1ccc(F)cc1)N1CCN(c2ncnc3[nH]cnc23)CC1` [Example 7.01.28.], the EC50 stood at 262 nM.

In the case of `O=C(Cn1cc(-c2ccc(F)c(Cl)c2)nc1-c1ccccc1)N1CCN(c2ncccn2)CC1` [Example 7.03.05.], the EC50 came to 87 nM.

In the case of `COc1ccnc(N2CCN(C(=O)Cn3cc(-c4ccc(F)c(C)c4)nc3-c3ccc(F)cc3)CC2)c1` [Example 7.01.23.], the EC50 stood at 75 nM.

Turning to `COc1cc(N2CCN(C(=O)Cn3cc(-c4ccc(F)cc4)nc3-c3ccc(F)cc3)CC2)ncn1` [Example 7.01.27.], the EC50 amounted to 238 nM.

On to `COc1ccnc(N2CCN(C(=O)Cn3cc(-c4ccc(F)c(C)c4)nc3-c3ccccc3)CC2)c1` [Example 7.01.02.], for which the EC50 amounted to 84 nM.

As for `Cc1cc(-c2cn(CC(=O)N3CCN(c4cccnn4)CC3)c(-c3ccccc3)n2)ccc1F` [Example 7.01.04.], the EC50 was found to be 363 nM.

In the case of `Cn1cnc2ccc(-c3cn(CC(=O)N4CCN(c5ncccn5)CC4)c(-c4ccccc4)n3)cc21` [Example 7.03.16.], the EC50 was found to be 1530 nM.

Consider `COc1cc(N2CCN(C(=O)Cn3cc(-c4ccc(F)c(C)c4)nc3-c3ccccc3)CC2)ncn1` [Example 7.01.05.], for which the EC50 was 159 nM.

Regarding `Cc1cc(-c2cn(CC(=O)N3CCN(c4ncccn4)CC3)c(-c3ccccc3)n2)ccc1F` [Example 7.01.03.], the concentration giving a half-maximal response (EC50) was found to be 41 nM.

Regarding `O=C(Cn1cc(-c2ccc(F)cc2)nc1-c1ccc(F)cc1)N1CCN(c2ccccn2)CC1` [Example 7.01.31.], the EC50 worked out at 244 nM.

As to `CCc1ccc(-c2cn(CC(=O)N3CCN(c4ncccn4)CC3)c(-c3ccccc3)n2)cc1` [Example 7.03.18.], the concentration giving a half-maximal response (EC50) was 74 nM.

For `Cc1cccc(-c2cn(CC(=O)N3CCN(c4ncnc5[nH]cnc45)CC3)c(-c3ccccc3)n2)c1` [Example 7.01.32.], the EC50 came to 131 nM.

Turning to `COc1ccnc(N2CCN(C(=O)Cn3cc(-c4ccc(F)cc4)nc3-c3ccc(F)cc3)CC2)c1` [Example 7.01.30.], the EC50 stood at 168 nM.
